Laboratory results taken from paper PMC9738062, “Selectively Halogenated Flavonolignans—Preparation and Antibacterial Activity” (International Journal of Molecular Sciences, 2022).
Entries after “also recorded” stand apart in the source; their conditions may differ.

Experiments:
[1] = tested on: lipopolysaccharide-stimulated macrophages (RAW 264.7); assay: Inhibition of nitric oxide production (Griess reagent); type: cell-based, murine; details: Mus musculus, RAW264.7; LPS 100 ng/mL, 24 h; highest tested concentration 100 µM; read-out: NO Production IC50
In short: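 RAW 264.7 macrophages seeded at 1 × 10^6 cells/mL and stimulated with bacterial lipopolysaccharide. After 24 h, medium was mixed 1:1 with Griess reagent (0.04 g/mL) and absorbance read at 540 nm after 15 min. Viability by resazurin.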

[2] = tested on: pooled male rat microsomal liver membranes; assay: Inhibition of lipid peroxidation induced by tert-butyl hydroperoxide; type: biochemical; details: male rat microsomes, read-out: ILP IC50
Protocol: The antiradical activity was evaluated by the ability to scavenge ABTS and DPPH radicals. Reducing capacity was assessed by the ability to reduce the Folin–Ciocalteu reagent (FCR) and ferric ions (FRAP). The ability to inhibit lipid peroxidation of pooled male rat microsomal liver membranes induced by tert-butyl hydroperoxide was also evaluated and the results were expressed as IC50 values.

[3] = tested on: multidrug-resistant S. aureus; assay: Sensitization of antibiotic-resistant bacteria (compound plus breakpoint antibiotic concentration); type: cell-based, Staphylococcus aureus; details: for Effect on viability in combination with chloramphenicol: chloramphenicol 8 mg/L; for Effect on viability in combination with chloramphenicol / Effect on viability in combination with gentamicin: flavonoid 40 µM, 24 h; for Effect on viability in combination with gentamicin: gentamicin 1 mg/L; for Gentamicin-resistant phenotype of S. aureus (result in words): gentamicin breakpoint concentration, compound 40 µM
In short: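 A multidrug-resistant clinical isolate of S. aureus from the General University Hospital in Prague was grown in Mueller–Hinton broth with flavonoid derivatives combined with a EUCAST breakpoint concentration of antibiotic. MIC was determined according to ISO 20776-1: 2020, and viability was read as absorbance at A590 nm after 24 h at 37 °C and 150 rpm.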

[4] = tested on: multidrug-resistant P. aeruginosa; assay: as above; type: cell-based, Pseudomonas aeruginosa; details: for Effect on viability in combination with colistin: colistin 2 mg/L; for Effect on viability in combination with colistin / Effect on viability in combination with imipenem: flavonoid 40 µM, 24 h; for Effect on viability in combination with imipenem: imipenem 4 mg/L; on Effect on viability in combination with imipenem: key: -: no effect (100% viability) was observed up to the highest flavonolignan concentration tested (>40 µM); reversion of resistance: the compound reversed the resistant phenotype to a sensitive one
In short: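 A multidrug-resistant clinical isolate of P. aeruginosa, obtained from the General University Hospital in Prague and resistant to colistin and imipenem among other drugs, was grown in Mueller–Hinton broth. Flavonoid derivatives at up to 40 µM were combined with EUCAST breakpoint antibiotic concentrations. MIC was determined per ISO 20776-1: 2020, with viability read as A590 nm after 24 h at 37 °C, 150 rpm.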

[5] = tested on: doxorubicin-resistant human ovarian carcinoma (HOC/DOX); assay: Cytotoxicity (resazurin assay, 72 h); type: cell-based; details: for IC50: Homo sapiens, 72 h, resazurin assay; for SI (selectivity index): ratio IC50 for HDF / IC50 for HOC/DOX
In short: (§1)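 HDF and HOC/DOX cells in DMEM with 10% FBS were treated 24 h after seeding with 31.25–500 µM compound for 72 h at 37 °C. Viability was read by resazurin fluorescence (560/590 nm) after 2 h; IC50 came from nonlinear regression, and selectivity index = IC50(HDF)/IC50(HOC/DOX).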

[6] = tested on: human dermal fibroblasts (HDF); assay: Cytotoxicity (resazurin assay, 72 h); type: cell-based; details: Fibroblast
In short: as §1

[7] = tested on: Vibrio campbellii BAA 1119 (AI-2); assay: Viability of the quorum-sensing reporter culture (resazurin assay), AI-2 strain; type: cell-based; details: BAA1119, V. campbellii BAA 1119, resazurin assay, read-out: IC50 (concentration that halved the viability)
In short: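 Mutant V. campbellii strains responding only to AI-1 (BAA-1118) or AI-2 (BAA-1119), seeded at 5 × 10^5 CFU/mL in Autoinducer Bioassay medium (potassium phosphate pH 7.0); compounds at final 0.2–200 µM.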

Row | Compound | IC50 [1] | IC50 [2] | Effect on viability in combination with chloramphenicol [3] | Effect on viability in combination with colistin [4] | Effect on viability in combination with imipenem [4] | IC50 [5] | SI (selectivity index) [5] | IC50 [6] | IC50 [7] | Effect on viability in combination with gentamicin [3] | Colistin-resistant phenotype of P. aeruginosa (result in words) ([4]; colistin breakpoint concentration) | Gentamicin-resistant phenotype of S. aureus (result in words) [3]
1 | COc1cc([C@H]2Oc3cc([C@H]4Oc5cc(O)c(Br)c(O)c5C(=O)[C@@H]4O)ccc3O[C@@H]2CO)ccc1O [compound 11, 6-Bromosilybin A] | 40 ± 3.4 µM | 449 µM | - | - | - | 186 µM | 0.51 | 95.6 ± 3 µM | 51.5 ± 0.6 µM |  |  | 
2 | COc1cc([C@H]2Oc3cc([C@H]4Oc5c(Br)c(O)c(Br)c(O)c5C(=O)[C@@H]4O)ccc3O[C@@H]2CO)ccc1O [compound 12, 6,8-dibromosilybin A] | 73.9 ± 5.8 µM | 710 µM | - | - | - | 304 µM | 0.34 | 102 µM | 80.5 ± 4.8 µM |  |  | 
3 | COc1cc([C@@H]2Oc3cc([C@H]4Oc5cc(O)c(Br)c(O)c5C(=O)[C@@H]4O)ccc3O[C@H]2CO)ccc1O [compound 13, 6-Bromosilybin B] | 37 ± 2.4 µM | 728 µM | - | - | - | 162 µM | 0.47 | 76.4 ± 1.1 µM | 52.7 ± 0.6 µM |  |  | 
4 | COc1cc([C@@H]2Oc3cc([C@H]4Oc5c(Br)c(O)c(Br)c(O)c5C(=O)[C@@H]4O)ccc3O[C@H]2CO)ccc1O [compound 14, 6,8-dibromosilybin B] | 90.4 ± 4.6 µM | 378 µM | - | - | - | 231 µM | 0.55 | 128 µM | 60.2 ± 3.4 µM |  |  | 
5 | COc1cc(C2Oc3cc(-c4oc5c(Br)c(O)cc(O)c5c(=O)c4O)ccc3OC2CO)ccc1O (stereo not shown) [compound 16, 8-bromo-2,3-dehydrosilybin AB] | > 25 µM | 49.2 ± 1.9 µM | - | reversion of resistance | - | 39.4 ± 3.4 µM | 0.43 | 16.9 ± 0.6 µM | 87 ± 2.5 µM | - | reversed the colistin-resistant phenotype in P. aeruginosa to a sensitive one | 
6 | COc1cc([C@@H]2Oc3c(O)cc(-c4oc5c(Br)c(O)cc(O)c5c(=O)c4O)cc3[C@H]2CO)ccc1O [compound 18, 8-Bromo-2,3-dehydrosilychristin A] | 32.6 ± 1.8 µM | 60.1 ± 2.7 µM | - | - | - | 209 µM | 0.32 | 66.7 ± 5.6 µM | 23 ± 0.2 µM | - |  | 
7 | COc1cc([C@H]2Oc3cc([C@H]4Oc5c(Br)c(O)c(Br)c(O)c5C(=O)[C@@H]4O)ccc3O[C@@H]2CO)cc(Br)c1O [compound 21, 6,8,21-tribromosilybin A] | 70.4 ± 1.7 µM | 213 µM | - | - | - | 201 µM | 0.37 | 75 ± 2.4 µM | > 200 µM | reversion of resistance |  | reversed the resistant phenotype to a sensitive one; also recorded: revert the resistant phenotype into a sensitive one
8 | COc1cc([C@@H]2Oc3cc([C@H]4Oc5c(Br)c(O)c(Br)c(O)c5C(=O)[C@@H]4O)ccc3O[C@H]2CO)cc(Br)c1O [compound 22, 6,8,21-tribromosilybin B] | > 100 µM | 255 µM | - | - | - | 183 µM | 0.47 | 85.8 ± 1.1 µM | 34.4 ± 1.8 µM | reversion of resistance |  | reversed the resistant phenotype to a sensitive one; also recorded: revert the resistant phenotype into a sensitive one
